Laboratory results: ChEMBL document CHEMBL4385602, “Stereoselective synthesis and biological evaluation as inhibitors of hepatitis C virus RNA polymerase of GSK3082 analogues with structural diversity at the 5-position” (Eur J Med Chem, 2019)

Assays:
[1] = Cytotoxicity against human Huh5-2 cells assessed as reduction in cell viability measured after 3 days by CellTiter 96 AQueous One Solution Cell Proliferation assay; assay type: cell-based, Huh-5-2
[2] = molecular target: RNA-directed RNA polymerase (Hepacivirus hominis) (UniProt O39930); assay: Inhibition of NS5B RNA dependent RNA polymerase in HCV 1b Con1 infected in human Huh5-2 cells assessed as reduction in viral RNA replication measured after 3 days by luciferase reporter gene assay; assay type: cell-based; settings: Hepatitis C virus subtype 1b
Sequence of RNA-directed RNA polymerase (Hepacivirus hominis) (O39930 1-591): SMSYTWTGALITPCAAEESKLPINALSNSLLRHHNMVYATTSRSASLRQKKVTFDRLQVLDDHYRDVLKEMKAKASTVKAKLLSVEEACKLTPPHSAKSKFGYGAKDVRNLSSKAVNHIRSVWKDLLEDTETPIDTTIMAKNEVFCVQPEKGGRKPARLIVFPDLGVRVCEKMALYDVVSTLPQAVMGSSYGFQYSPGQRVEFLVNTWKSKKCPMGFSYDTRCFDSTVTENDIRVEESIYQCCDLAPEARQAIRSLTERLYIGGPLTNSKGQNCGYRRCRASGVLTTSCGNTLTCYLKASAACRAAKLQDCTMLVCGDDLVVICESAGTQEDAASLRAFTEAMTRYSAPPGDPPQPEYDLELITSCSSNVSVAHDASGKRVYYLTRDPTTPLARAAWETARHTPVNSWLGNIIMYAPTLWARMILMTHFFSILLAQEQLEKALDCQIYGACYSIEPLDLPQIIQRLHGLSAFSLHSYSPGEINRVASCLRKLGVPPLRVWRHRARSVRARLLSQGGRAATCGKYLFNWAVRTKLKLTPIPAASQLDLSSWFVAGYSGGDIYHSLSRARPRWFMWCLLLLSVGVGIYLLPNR

Compound | inhibition [2] | CC50 at 72 h [1]
COC[C@H]1C[C@@](CC(C)C)(C(=O)O)N(C(=O)c2ccc(C(C)(C)C)c(OC)c2)[C@H]1C(=O)OC | Dose-dependent effect | > 120 µM
CCOC(=O)c1csc([C@H]2[C@@H](COC)C[C@@](CC(C)C)(C(=O)O)N2C(=O)c2ccc(C(C)(C)C)c(OC)c2)n1 | Dose-dependent effect | 200 µM
C=CCOC[C@H]1[C@@H](COC)C[C@@](CC(C)C)(C(=O)O)N1C(=O)c1ccc(C(C)(C)C)c(OC)c1 | Dose-dependent effect | > 120 µM
COC[C@H]1C[C@@](CC(C)C)(C(=O)O)N(C(=O)c2ccc(C(C)(C)C)c(OC)c2)[C@H]1[C@H]1COC(=O)O1 | Dose-dependent effect | > 120 µM
CC[C@H]1[C@@H](COC)C[C@@](CC(C)C)(C(=O)O)N1C(=O)c1ccc(C(C)(C)C)c(OC)c1 | Dose-dependent effect | 200 µM
COC[C@H]1C[C@@](CC(C)C)(C(=O)O)N(C(=O)c2ccc(C(C)(C)C)c(OC)c2)[C@H]1C(N)=O | Dose-dependent effect | > 120 µM
COC[C@H]1C[C@@](CC(C)C)(C(=O)O)N(C(=O)c2ccc(C(C)(C)C)c(OC)c2)[C@H]1CF | Dose-dependent effect | > 120 µM
COC[C@H]1C[C@@](CC(C)C)(C(=O)O)N(C(=O)c2ccc(C(C)(C)C)c(OC)c2)[C@H]1COC | Dose-dependent effect | > 120 µM

Now from value to molecule, other results behind:

inhibition [2] | Compound | CC50 at 72 h [1]
Dose-dependent effect | COC[C@H]1C[C@@](CC(C)C)(C(=O)O)N(C(=O)c2ccc(C(C)(C)C)c(OC)c2)[C@H]1CN=[N+]=[N-] | > 120 µM
Dose-dependent effect | COC[C@H]1C[C@@](CC(C)C)(C(=O)O)N(C(=O)c2ccc(C(C)(C)C)c(OC)c2)[C@H]1COC(=O)OC | > 120 µM
Dose-dependent effect | COC[C@H]1C[C@@](CC(C)C)(C(=O)O)N(C(=O)c2ccc(C(C)(C)C)c(OC)c2)[C@H]1[C@H]1COC(C)(C)O1 | > 120 µM
Dose-dependent effect | COC[C@H]1C[C@@](CC(C)C)(C(=O)O)N(C(=O)c2ccc(C(C)(C)C)c(OC)c2)[C@H]1CNC(C)=O | > 120 µM
Dose-dependent effect | COC[C@H]1C[C@@](CC(C)C)(C(=O)O)N(C(=O)c2ccc(C(C)(C)C)c(OC)c2)[C@@H]1c1nccs1 | 200 µM
Dose-dependent effect | COC[C@H]1C[C@@](CC(C)C)(C(=O)O)N(C(=O)c2ccc(C(C)(C)C)c(OC)c2)[C@H]1c1nccs1 | > 120 µM
Dose-dependent effect | COC[C@H]1C[C@@](CC(C)C)(C(=O)O)N(C(=O)c2ccc(C(C)(C)C)c(OC)c2)[C@H]1COC(C)=O | > 120 µM
